# Reference: US20130005759A1, “SMALL MOLECULE MODIFIERS OF MICRORNA MIR-122” (North Carolina State University, priority 2010, published 2013)
# Columns and labels:
# [1] = tested on: pri-miR-122; assay: quantitative RT PCR of pri-miR-122 in Huh7 cells; assay type: cell-based, human; settings: Huh7, 10 μM, 48 hours, normalized to DMSO
# Protocol: The activity of the small molecule modifiers was analyzed by quantitative RT PCR in order to measure their direct effects on miR-122 expression levels in Huh7 cells. […] All experiments were conducted in triplicate, and the data was normalized to a DMSO control.
# Each treatment was conducted in triplicate to ensure statistical validity. Cells were then incubated at 37° C. for 48 hours (DMEM, 5% CO2). The media was removed, and cells were washed with PBS buffer (2×2 mL, pH 7.4) followed by RNA isolation with the mirPremier™ microRNA Isolation Kit (Aldrich). The RNA was quantified using a Nanodrop ND-1000 spectrophotometer and 10 ng of each RNA sample was reverse transcribed using the TaqMan™ microRNA Reverse Transcription Kit (Applied Biosystems) in conjunction with either the miR-122 or miR-21 TaqMan™ RT primer (16° C., 30 min; 42° C., 30 min; 85° C., 5 min). Quantitative Real Time PCR was conducted with a TaqMan™ 2× Universal PCR Master Mix and the appropriate TaqMan™ miRNA assay (Applied Biosystems) on a BioRad MyiQ RT-PCR thermocycler (1.3 μL RT PCR product; 95° C., 10 min; followed by 40 cycles of 95° C., 15 s; 60° C. 60 s). […]
# [2] = tested on: psiCHECK-control vector (no miRNA target sequence); assay: psiCHECK-control vector luciferase counter-assay in Huh7 cells; assay type: cell-based, human; settings: Huh7, 10 μM
# Description: (FIG. 3). […] The relative luciferase units were normalized to the corresponding DMSO signals. […] This confirms that compound 2 and the antagomir have similar effects on the reduction of miR-122 function in Huh7 cells.
# Compounds which elicited greater than a 5-fold increase of the relative luciferase units signal compared to the DMSO control were then re-assayed in triplicate to confirm the validity of the hit compound. Upon secondary validation of miR-122 inhibition, identical assays were repeated with the psiCHECK-Control vector to ascertain that the effect is specific to the miR-122 pathway, and not simply affecting the Renilla gene. In order to assess the relative degree of miR-122 inhibition, Huh7 cells were also co-transfected with either the psiCHECK-Control plasmid or the psiCHECK-miR122 plasmid (0.5 μg) and a miR-122 2′-OMe PS antagomir (50 pmol; 5′ […] (SEQ ID NO:4) 3′; IDT DNA)(2) using the X-tremGENE transfection reagent (Roche Applied Science, 4:2 reagent/DNA ratio). The transfection media was replaced with standard DMEM growth media after 4 hours and the cells were incubated for 48 hours prior to analysis with a Dual Luciferase Assay Kit (FIG. 3).
# [3] = tested on: miR-21; assay: miR-21 luciferase reporter assay in HeLa-miR-21-Luc cells; assay type: cell-based; settings: 10 μM, 48 hours
# Protocol: Using the previously described HeLa-miR-21-Luc cell line (a stably transfected line harboring a miR-21 binding sequence in the 3′ UTR of a firefly luciferase gene),(9) cells were grown to 80% confluency (DMEM) and treated with either DMSO, the previously reported miR-21 inhibitor, or compounds 1 and 2 at 10 μM (1% DMSO final concentration). The cells were incubated for 48 hours at 37° C. (5% CO2) and then assayed with a Bright-Glo Luciferase Kit (Promega) and analyzed using a Wallac VICTOR^3V luminometer with a measurement time of 1 s and a delay time of 2 s (FIG. 4).
SMILES,pri-miR-122 down-regulation to (remaining level) [1],normalized Renilla luciferase signal with psiCHECK-control vector [2],activity in miRNA-21 reporter (luciferase signal) [3]
O=C(Nc1ccc2ccccc2c1)c1ccc(Cl)cc1Cl [Compound 1],22%,no statistically significant alteration,no activity was found
O=S(=O)(c1ccc2c(c1)CCCN2)N1CCC[C@H]2CCCC[C@@H]21 [Compound 2],3%,no statistically significant alteration,no activity was found
